US5262417A, “Antibacterial quinolone compounds” (The Upjohn Company, priority 1991, dated 1993)
≈ marks a conversion by molar mass, not a printed value. Read-outs that look alike come from different tables or passages of the source.

Tests used:
Type in all cases: cell-based
[1] = system: Escherichia coli UC 51 (EC); assay: Dip disk (disk-diffusion) assay, disks loaded with 0.05 ml; conditions: Escherichia coli, UC51, 0.05 ml per disk, read-out: Growth Inhibition zone, EC; for zone of inhibition at 1 µg/mL: 1.0 mcg/ml; for zone of inhibition at 0.1 µg/mL: 0.1 mcg/ml
Description: (§1) The effectiveness of the subject compounds on bacteria were obtained by performing a dip disk assay. The antibacterial activity of the compounds was determined by the disk-diffusion method. Paper disks (12.7 mm) were loaded with 0.05 ml of drug solution prepared at a concentration of 0.1 mcg/ml; the disks were allowed to air dry. They were then applied to the surface of microorganism-seeded agar assay trays, which contained the bacterial strain Pseudomonas aeruginosa UC 95 (PA), Escherichia coli UC 51 (EC), Klebsiella pneumoniae UC 57 (KP), or Staphylococcus aureus UC 80 (SA). The assay trays were incubated overnight under aerobic condition to allow for the growth of the organisms. Zones of growth inhibition due to the action of the antibiotic were then measured to the nearest millimeter.
(§2) The effectiveness of additional compounds 5-9, (5-7 are Formula IAa compounds and 8 and 9 are Formula IAb compounds) on bacteria were obtained by performing a dip disk assay as described above. The antibacterial activity of the compounds was determined by the disk-diffusion method where the disks were loaded with 0.05 ml of drug solution prepared at a concentration of 1.0 mcg/ml; the disks were allowed to air dry.

[2] = system: Pseudomonas aeruginosa UC 95 (PA); assay: as above; conditions: Pseudomonas aeruginosa, UC95, 0.05 ml per disk, read-out: Growth Inhibition zone, PA; for zone of inhibition at 1 µg/mL: 1.0 mcg/ml; for zone of inhibition at 0.1 µg/mL: 0.1 mcg/ml
Description: as §1, §2

[3] = system: Staphylococcus aureus UC 80 (SA); assay: as above; conditions: Staphylococcus aureus, UC80, 0.05 ml per disk, read-out: Growth Inhibition zone, SA; for zone of inhibition at 1 µg/mL: 1.0 mcg/ml; for zone of inhibition at 0.1 µg/mL: 0.1 mcg/ml
Description: as §1, §2

[4] = system: Klebsiella pneumoniae UC 57 (KP); assay: as above; conditions: Klebsiella pneumoniae, UC57, 0.05 ml per disk, read-out: Growth Inhibition zone, KP; for zone of inhibition at 1 µg/mL: 1.0 mcg/ml; for zone of inhibition at 0.1 µg/mL: 0.1 mcg/ml
Description: as §1, with “Paper disks (12.7 mm) were loaded with 0.05 ml of drug solution prepared at a concentration of 0.1 mcg/ml; the disks were allowed to air dry.” left out, “millimeter. […]” for “millimeter.”

Enterobacter cloacae = assay: Minimum inhibitory concentration (MIC) by agar dilution; conditions: 20 h, read-out: MINIMUM INHIBITORY CONCENTRATION
Outline: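 Bacteria grown overnight at 35 °C, adjusted to 0.5 McFarland in TSB, diluted 1:20 and spotted at 1 μl per spot by replicator.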

[5] = system: Acinetobacter calcoaceticus; assay: as above; conditions: Acinetobacter calcoaceticus, 20 h, read-out: MINIMUM INHIBITORY CONCENTRATION, Cult No. 12170, MHA
Outline: (§3)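 Read-out is the minimum inhibitory concentration on agar plates containing serial compound dilutions in plain Mueller Hinton agar. Strains, cultured overnight at 35° C and adjusted in TSB to 0.5 McFarland, are diluted one to 20 before replicator inoculation.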

Citerobacter freundii = assay: as above; conditions: 20 h, read-out: MINIMUM INHIBITORY CONCENTRATION
Outline: as §3

Escherichia coli = assay: as above; conditions: Escherichia coli, 20 h
Outline: as §3

Klebsiella pneumoniae = assay: as above; conditions: 20 h, read-out: MINIMUM INHIBITORY CONCENTRATION
Outline: as §3

Proteus penneri = assay: as above; conditions: Proteus penneri, 20 h, read-out: MINIMUM INHIBITORY CONCENTRATION, Cult No. 9679, MHA
Outline: as §3

Pseudomonas aeruginosa = assay: as above; conditions: Pseudomonas aeruginosa, 20 h
Outline: as §3

Serratia marcescens = assay: as above; conditions: 20 h, read-out: MINIMUM INHIBITORY CONCENTRATION
Outline: as §3

Staphylococcus aureus = assay: as above; conditions: Staphylococcus aureus, 20 h
Outline: as §3

[6] = system: Staphylococcus epidermidis; assay: as above; conditions: 20 h, read-out: MINIMUM INHIBITORY CONCENTRATION
Outline: as §3

Streptococcus faecalis = assay: as above; conditions: Enterococcus faecalis, 20 h, read-out: MINIMUM INHIBITORY CONCENTRATION
Outline: as §3

Streptococcus pneumoniae = assay: as above; conditions: Streptococcus pneumoniae, 20 h, read-out: MINIMUM INHIBITORY CONCENTRATION, Cult No. 41, MHA
Outline: as §3

Streptococcus pyogenes = assay: as above; conditions: Streptococcus pyogenes, 20 h, read-out: MINIMUM INHIBITORY CONCENTRATION, Cult No. 152, MHA
Outline: as §3

[7] = read-out: MINIMUM INHIBITORY CONCENTRATION, Cult No. 6674, MHA
[8] = read-out: MINIMUM INHIBITORY CONCENTRATION, Cult No. 9451, MHA
[9] = read-out: MINIMUM INHIBITORY CONCENTRATION, Cult No. 9855, MHA
[10] = read-out: MINIMUM INHIBITORY CONCENTRATION, Cult No. 9952, MHA
[11] = read-out: MINIMUM INHIBITORY CONCENTRATION, Cult No. 6676, MHA
[12] = read-out: MINIMUM INHIBITORY CONCENTRATION, Cult No. 9191, MHA
[13] = read-out: MINIMUM INHIBITORY CONCENTRATION, Cult No. 12120, MHA
[14] = read-out: MINIMUM INHIBITORY CONCENTRATION, Cult No. 6685, MHA
[15] = read-out: MINIMUM INHIBITORY CONCENTRATION, Cult No. 9213, MHA
[16] = read-out: MINIMUM INHIBITORY CONCENTRATION, Cult No. 9218, MHA
[17] = read-out: MINIMUM INHIBITORY CONCENTRATION, Cult No. 9271, MHA

## COC(=O)/C=C(\C(=O)OC)N1CCN(c2c(F)cc3c(=O)c(C(=O)O)cn(C4CCC4)c3c2F)CC1 [Compound 6, 2-[4-(3-carboxy-1-cyclobutyl-6,8-difluuoro-1,4-dihydro-4-oxo-7-quinolinyl)-1-piperazinyl]-2-butenedioic acid (E)-1,4-dimethyl ester]
[1]
  zone of inhibition at 1 µg/mL: 24 mm
[2]
  zone of inhibition at 1 µg/mL: 16 mm
[3]
  zone of inhibition at 1 µg/mL: 22 mm
[4]
  zone of inhibition at 1 µg/mL: 26 mm

## COC(=O)C/C=C(\C(=O)OC)N1CCN(c2c(F)cc3c(=O)c(C(=O)O)cn(C4CC4)c3c2F)CC1 [Compound 4, 2-[4-(3-carboxy-1-cyclopropyl-6,8-difluoro-1,4-dihydro-4-oxo-4-oxo-7-quinolinyl)-1-piperazineyl]-2-pentenedioic acid-(E)-1,5-dimethyl ester]
[1]
  zone of inhibition at 0.1 µg/mL: 27 mm
[2]
  zone of inhibition at 0.1 µg/mL: 33 mm
[3]
  zone of inhibition at 0.1 µg/mL: 28 mm
[4]
  zone of inhibition at 0.1 µg/mL: 33 mm

## O=C(O)c1cn(C23CC(C2)C3)c2nc(N3CCNCC3)c(F)cc2c1=O [No. 4, 7-(1-piperazinyl)-1-(bicyclo[1.1.1]pent-1-yl)-1,4-dihydro-6-fluoro-4-oxo-1,8-naphthyridine-3-carboxylic acid]
Enterobacter cloacae
  MIC: 0.06 µg/mL (≈ 0.167 µM)
[5]
  MIC: 0.25 µg/mL (≈ 0.698 µM)
Citerobacter freundii
  MIC: 0.06 µg/mL (≈ 0.167 µM)
Escherichia coli; [7]
  MIC: 0.06 µg/mL (≈ 0.167 µM)
Escherichia coli; [8]
  MIC: 0.06 µg/mL (≈ 0.167 µM)
Escherichia coli; [9]
  MIC: 0.06 µg/mL (≈ 0.167 µM)
Escherichia coli; [10]
  MIC: 0.06 µg/mL (≈ 0.167 µM)
Klebsiella pneumoniae
  MIC: 0.125 µg/mL (≈ 0.349 µM)
Proteus penneri
  MIC: 0.5 µg/mL (≈ 1.4 µM)
Pseudomonas aeruginosa; [11]
  MIC: 2 µg/mL (≈ 5.58 µM)
Pseudomonas aeruginosa; [12]
  MIC: 1 µg/mL (≈ 2.79 µM)
Pseudomonas aeruginosa; [13]
  MIC: 0.5 µg/mL (≈ 1.4 µM)
Serratia marcescens
  MIC: 0.25 µg/mL (≈ 0.698 µM)
Staphylococcus aureus; [14]
  MIC: 0.25 µg/mL (≈ 0.698 µM)
Staphylococcus aureus; [15]
  MIC: 0.5 µg/mL (≈ 1.4 µM)
Staphylococcus aureus; [16]
  MIC: 0.5 µg/mL (≈ 1.4 µM)
Staphylococcus aureus; [17]
  MIC: 0.5 µg/mL (≈ 1.4 µM)
[6]
  MIC: 0.25 µg/mL (≈ 0.698 µM)
Streptococcus faecalis
  MIC: 2 µg/mL (≈ 5.58 µM)
Streptococcus pneumoniae
  MIC: 2 µg/mL (≈ 5.58 µM)
Streptococcus pyogenes
  MIC: 2 µg/mL (≈ 5.58 µM)

## COC(=O)/C=C(\C(=O)OC)N1CCN(c2c(F)cc3c(=O)c(C(=O)O)cn(-c4ccc(F)cc4)c3c2F)CC1 [Compound 7]
[1]
  zone of inhibition at 1 µg/mL: 24 mm
[2]
  zone of inhibition at 1 µg/mL: 15 mm
[3]
  zone of inhibition at 1 µg/mL: 22 mm
[4]
  zone of inhibition at 1 µg/mL: 26 mm

## CN1CCN(c2c(F)cc3c(=O)c(C(=O)O)cn(C45CC(C4)C5)c3c2F)CC1 [No. 99, 7-(4-methyl-1-piperazinyl)-1-(bicyclo[1.1.1]pent-1-yl)-1,4-dihydro-6,8-difluoro-4-oxo-3-quinolinecarboxylic acid]
Enterobacter cloacae
  MIC: 0.25 µg/mL (≈ 0.642 µM)
[5]
  MIC: 0.125 µg/mL (≈ 0.321 µM)
Citerobacter freundii
  MIC: 0.25 µg/mL (≈ 0.642 µM)
Escherichia coli; [7]
  MIC: 0.25 µg/mL (≈ 0.642 µM)
Escherichia coli; [8]
  MIC: 0.255 µg/mL (≈ 0.655 µM)
Escherichia coli; [9]
  MIC: 0.25 µg/mL (≈ 0.642 µM)
Escherichia coli; [10]
  MIC: 0.125 µg/mL (≈ 0.321 µM)
Klebsiella pneumoniae
  MIC: 0.5 µg/mL (≈ 1.28 µM)
Proteus penneri
  MIC: 2 µg/mL (≈ 5.14 µM)
Pseudomonas aeruginosa; [11]
  MIC: 4 µg/mL (≈ 10.3 µM)
Pseudomonas aeruginosa; [12]
  MIC: 4 µg/mL (≈ 10.3 µM)
Pseudomonas aeruginosa; [13]
  MIC: 2 µg/mL (≈ 5.14 µM)
Serratia marcescens
  MIC: 1 µg/mL (≈ 2.57 µM)
Staphylococcus aureus; [14]
  MIC: 0.5 µg/mL (≈ 1.28 µM)
Staphylococcus aureus; [15]
  MIC: 0.5 µg/mL (≈ 1.28 µM)
Staphylococcus aureus; [16]
  MIC: 0.5 µg/mL (≈ 1.28 µM)
Staphylococcus aureus; [17]
  MIC: 0.5 µg/mL (≈ 1.28 µM)
[6]
  MIC: 0.5 µg/mL (≈ 1.28 µM)
Streptococcus faecalis
  MIC: 4 µg/mL (≈ 10.3 µM)
Streptococcus pneumoniae
  MIC: 2 µg/mL (≈ 5.14 µM)
Streptococcus pyogenes
  MIC: 2 µg/mL (≈ 5.14 µM)

## COC(=O)/C=C(\C)NC1CCN(c2c(F)cc3c(=O)c(C(=O)O)cn(C4CC4)c3c2F)C1 (stereo not shown) [Compound 9, 2-[4-(3-carboxy-1-cyclopropyl-6,8-difluoro-1,4-dihydro-4-oxo-7-quinolinyl)-1-(3-aminopyrrolidinyl)]-3-butenoic acid-(E)-1-methyl ester]
[1]
  zone of inhibition at 1 µg/mL: 24 mm
[2]
  zone of inhibition at 1 µg/mL: 32 mm
[3]
  zone of inhibition at 1 µg/mL: 23 mm
[4]
  zone of inhibition at 1 µg/mL: 26 mm

## COC(=O)/C=C(\C(=O)OC)N1CCN(c2c(F)c(N)c3c(=O)c(C(=O)O)cn(C4CC4)c3c2F)CC1 [Compound 5, 2-[4-(5-amino-3-carboxy-1-cyclopropyl-6,8-difluoro-1,4-dihydro-4-oxo-7-quinolinyl)-1-piperazinyl]-2-butenedioic acid, (E)-1,4-dimethyl ester]
[1]
  zone of inhibition at 1 µg/mL: 24 mm
[2]
  zone of inhibition at 1 µg/mL: 27 mm
[3]
  zone of inhibition at 1 µg/mL: 27 mm
[4]
  zone of inhibition at 1 µg/mL: 28 mm

## COC(=O)/C=C(/NC1CCN(c2c(F)cc3c(=O)c(C(=O)O)cn(-c4ccc(F)cc4F)c3c2F)C1)C(=O)OC (stereo not shown) [Compound 8, 2-[4-(3-carboxy-1-benzene(2,4-difluoro)-1,4-dihydro-4-oxo-7-quinolinyl)-1-(3-aminopyrrolidinyl)]-2-butenedioic acid, (E)-1,4-dimethyl ester]
[1]
  zone of inhibition at 1 µg/mL: 30 mm
[2]
  zone of inhibition at 1 µg/mL: 28 mm
[3]
  zone of inhibition at 1 µg/mL: 32 mm
[4]
  zone of inhibition at 1 µg/mL: 34 mm

## COC(=O)C=C(C(=O)OC)N1CCN(c2cc3c(cc2F)c(=O)c(C(=O)O)cn3C2CC2)CC1 [Compound 3, 2-[4-(1-Cyclopropyl-3-carboxy-6-fluoro-1,4-dihydro-4-oxo-7-quinolinyl)-1-piperazinyl]2-butenedioic acid, dimethyl ester]
[1]
  zone of inhibition at 0.1 µg/mL: 29 mm
[2]
  zone of inhibition at 0.1 µg/mL: 36 mm
[3]
  zone of inhibition at 0.1 µg/mL: 25 mm
[4]
  zone of inhibition at 0.1 µg/mL: 29 mm
